Patent US8541216B2 (priority 2009, dated 2013)

System: beet armyworm eggs
Test: beet armyworm egg bioassay of separated, semipurified dunaimycins (96-well artificial diet)
Type: in vivo, beet armyworm (Spodoptera exigua)
Procedure: The separated, identified dunaimycins were then tested for bioactivity against beet armyworm eggs as follows. Stock solutions were provided as 15% aqueous ethanol solution of various semipurified dunaimycins, either alone or in combinations. For reference purposes, Javelin WDG (Bacillus thuringiensis subspecies Kurstaki; ThermoTrilogy Inc) was weighed out and diluted to give a 1,000 ppm stock solution (positive chemical standard). These stock solutions were transferred to a deep well microtitre plate: 1.4 ml of each stock solutions were placed in the 2 ml well across the top row (A wells 1-12). A Packard Multiprobe II liquid handling system (Perkin Elmer Inc.) then carried out a dilution program, first adding 700 μls of DI H2O to the remaining 84 wells (B-H 1-12). The four tip arm then performed a sequence of aspiration and dispensing steps to mix the samples and then transferred them into an adjoining well to give eight 50% serially diluted samples containing 700 μl per well. The robot then used a transfer program to pipette all of the serial diluted samples to labeled 96 well plates. Aliquots containing 40 μl of each dilution were dispensed into six wells across a microtitre plate containing ˜200 μl of artificial diet/well. […] Mortality was recorded as the number dead over the number treated and expressed as control corrected percent mortality. […]

In the case of `CCC(O)CC1OC2(CCC1C)CC1OC(=O)/C=C\C(C)C(O)C(C)C(O)CC(O)C(C)CCCCC/C=C/C(CC(C)C)C(=O)CC(O2)C1C` (centres unmarked) [Dunaimycin A1], the “LD50 (ppm) BAW assay” value (Tested alone) is reported as “Inactive up to 1000 ppm” and the “insecticidal activity (active or inactive dunaimycin)” value (classification of purified species, inactive up to about 1000 ppm) is reported as “Inactive”.
